Publication PMC11237012, “Synthesis and preliminary evaluation of novel PET probes for GSK-3 imaging” (Scientific Reports, 2024)

Experiment: Radiochemical stability in isotonic NaCl solution (rad-TLC)
Format: physicochemical
Details: 37 °C
Method: The stability of PET probes [^18F]2 and [^18F]6 was measured in isotonic NaCl solution (0.9% NaCl) and mouse and human serums at 37 °C for up to 120 min by rad-TLC at 0 min, 30 min, 60 min and 120 min post incubation. The results obtained are presented in Fig. 5 and SI-Figs. S10–S15, SI-Table S1. […] The plausible explanation of the instability of [^18F]6 could be attributed to the covalent interaction of [^18F]6’s SO2F group with primary amines of amino acid residues present in the protein rich mouse and human serums. In fact, in an unrelated study, Zhao et al. reported formation of sulfonamide bond between sulfuryl fluoride and primary amine of conserved lysine residues of different kinases. […] Based on 2’s favorable blood–brain barrier permeability, nanomolar binding affinity and PET probe [^18F]2’s excellent stability in both mouse and human serums, further in vivo evaluations were performed only with PET probe [^18F]2.
Stability of [^18F]2 and [^18F]6 was assessed in isotonic NaCl solution and human and mouse serums. To perform this stability assay, 100 µL of [^18F]2 (~ 37.0 MBq) or 100 µL of [^18F]6 (~ 37.0 MBq) as in final formulation was added to 100 µL of human serum or mouse serum in a microcentrifuge tube. The resultant mixture was incubated at 37 °C for 120 min. To assess the radiochemical stability of the probes, a small aliquot (~ 0.5 µL) was taken out from the mixture in triplicate at 0 min, 30 min, 60 min and 120 min during incubation, and analyzed on a rad-TLC using 0.5:9.5 methanol: chloroform as a mobile phase using i-TLC to estimate the stability of [^18F]2 or [^18F]6 at different time points post-incubation. After Stability preparative processes initial i-TLC development was considered as 0 min.

Measured: Percentage of intact probe

O=C(Nc1cnccc1-c1ccc([18F])cc1)c1ccnc(NC(=O)C2CC2)c1 [[^18F]2]
100 ± 0.0%: 0 min | 30 min | 60 min
